One series relates to diabetic rats. As to conditions: cited from earlier work.
For series [1] the following is noted: patients, 24 months of treatment; cited from earlier work.
The conditions of series [2]: glaucoma patients; cited from earlier work.
In a further series the test system is JC virus. As to conditions: cited from earlier work.
In a further series the target is 5-HT2A (Homo sapiens, UniProt P28223). To be noted: cited from earlier work.
A short description of series [3]: Solubility determination in selected excipients (HPLC). The series is classed as physicochemical. As to conditions: thermodynamic from solid. The procedure: The vial contents were mixed for 30 seconds using a VWR mini vortexter followed by sonication (Branson 1510) for 1 minutes. Vials were placed into a constant temperature bath (i.e., about 25° C.) and allowed to equilibrate for no less than 12 hours. The resulting suspensions were transferred to eppendorf tubes each equipped with a 0.2 μm nylon filter (Costar 8168) and were centrifuged for 10 minutes at 14,000 rpms. The supernatant from each eppendorf tube was collected and diluted with HPLC grade acetonitrile or methonal with appropriate dilution factor. Each solution was analyzed by an HPLC method.
As an example, the following HPLC assay was used to determine the aqueous solubility of 1-[3-(4-bromo-2-methyl-2H-pyrazol-3-yl)-4-methoxy-phenyl]-3-(2,4-difluoro-phenyl)-urea:
HPLC System: Waters 2795; Stationary phase: Xterra® column, MS C18, 3.5 μm, 4.6×50 mm; Mobile phase: Line A: 100% De-ionized-Millipore water; Line B: 1.0% NH4OH; Line C: 100% HPLC grade Acetonitrile; Gradient: A: 80% to 0% in 8 minute; B: 10% constant in 8 minute; C: 10% to 90% in 8 minute; Flow rate: 1.50 mL/min; Column temperature: 40° C.±5° C.; Sample temperature: 25° C.±5° C.
Photodiode Array Detector: Waters 2996 with UV lamp: 3D data collection; Start wavelength: 210 nm; end wavelength: 320 nm.
Processing wavelength: 220 nm.
Quantification was effected by comparison of the HPLC peak area for each test solution with the peak area taken from a standard plot of concentration versus peak area for standards of known concentration. As is conventional, the standard concentrations for 1-[3-(4-bromo-2-methyl-2H-pyrazol-3-yl)-4-methoxy-phenyl]-3-(2,4-difluoro-phenyl)-urea were selected to fall within a linear range of concentration versus absorbance for the UV detector employed. The standard concentration for 1-[3-(4-bromo-2-methyl-2H-pyrazol-3-yl)-4-methoxy-phenyl]-3-(2,4-difluoro-phenyl)-urea was diluted in serial fashion to obtain a calibration curve. Dilution was effected by adding the acetonitrile from mobile phase. Each saturated equilibrium solution for 1-[3-(4-bromo-2-methyl-2H-pyrazol-3-yl)-4-methoxy-phenyl]-3-(2,4-difluoro-phenyl)-urea obtained after filtering the test vial solutions was diluted with acetonitrile or methonal with appropriate dilution factor to reach the linear range of the standard plot.

The nature of series [4]: Plasma pharmacokinetics in healthy male and female volunteers following oral administration of a capsule formulated dose. The series is classed as in vivo. As to conditions: both sexes, human, capsule with Cremephor RH40. As to the method: Plasma pharmacokinetics for 1-[3-(4-bromo-2-methyl-2H-pyrazol-3-yl)-4-methoxy-phenyl]-3-(2,4-difluoro-phenyl)-urea were determined in healthy male and female volunteers following oral administration of a capsule formulated dose of 1-[3-(4-bromo-2-methyl-2H-pyrazol-3-yl)-4-methoxy-phenyl]-3-(2,4-difluoro-phenyl)-urea and Cremephor RH40.

For series [5], the target named is 5-HT2A serotonin receptor (Homo sapiens, UniProt P28223). To be noted: cited from earlier work.
Sequence of 5-HT2A serotonin receptor (P28223 whole entry): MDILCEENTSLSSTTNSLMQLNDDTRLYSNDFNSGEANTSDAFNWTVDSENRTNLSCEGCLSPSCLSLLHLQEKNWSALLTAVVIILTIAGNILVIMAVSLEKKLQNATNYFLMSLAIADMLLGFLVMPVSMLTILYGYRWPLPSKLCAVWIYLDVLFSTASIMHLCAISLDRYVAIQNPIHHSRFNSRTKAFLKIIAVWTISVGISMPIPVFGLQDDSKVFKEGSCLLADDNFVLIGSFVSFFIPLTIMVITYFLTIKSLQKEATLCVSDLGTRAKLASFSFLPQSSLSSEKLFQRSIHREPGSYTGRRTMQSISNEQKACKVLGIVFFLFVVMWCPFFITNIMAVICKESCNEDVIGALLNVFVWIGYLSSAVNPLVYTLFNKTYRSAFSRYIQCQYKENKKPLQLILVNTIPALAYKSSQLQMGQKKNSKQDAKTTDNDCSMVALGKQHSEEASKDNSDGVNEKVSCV

Values after ≈ are worked out from the molar mass of the structure shown. Read-outs that look alike come from different tables or passages of the source.

Sequence of 5-HT2A (P28223 whole entry): as above

Take `COc1cccc(CCc2ccccc2OCC(CN(C)C)OC(=O)CCC(=O)O)c1` (stereo not drawn) [sarpogrelate]: in the series with diabetic rats, the “14.9% reduction in saphenous sensory conduction velocity” value (“14.9% reduction” for short) was “completely reversed” and the “44.7% reduction in sciatic endoneurial blood flow” value (from here on “44.7% reduction”) is on record as “completely reversed”. The “urinary albumin excretion level” value in series [1] is reported as “significantly reduced”. Besides, the IOP result in series [2] was “significantly lower IOP”.

In the case of `Cc1nc2sccn2c(=O)c1CCN1CCC(=C(c2ccc(F)cc2)c2ccc(F)cc2)CC1` [ritanserin], in the series on diabetic rats, the “14.9% reduction” value was “completely reversed” and the “44.7% reduction” value was “completely reversed”. In addition, the “JC virus infection of human glial cells” value in the series on JC virus is listed as “inhibited JC virus infection”. In addition, the “inverse agonist activity at 5-HT2A” value at 5-HT2A was “have inverse agonist activity”.

Consider `O=C(c1ccc(F)cc1)C1CCN(CCn2c(=O)[nH]c3ccccc3c2=O)CC1` [ketanserin], for which the “JC virus infection of human glial cells” value in the series with JC virus is given as “inhibited JC virus infection”. Further, the “inverse agonist activity at 5-HT2A” value at 5-HT2A is given as “have inverse agonist activity”.

In general, solubility refers to the dissolved amount per volume that the medium holds. As a reminder, the AUC(0-inf) is total exposure, with the tail of the curve extrapolated. Higher therefore signals more exposure. In general, Cmax refers to the maximum level reached in the sampled fluid or tissue. For orientation: Tmax means the time at which the peak concentration occurs. For `COc1ccc(NC(=O)Nc2ccc(F)cc2F)cc1-c1c(Br)cnn1C` [1-[3-(4-bromo-2-methyl-2H-pyrazol-3-yl)-4-methoxy-phenyl]-3-(2,4-difluoro-phenyl)-urea], the solubility is at most 0.01 mg/mL in series [3] (0.01 N HCl, 25 °C, pH 2, simulated gastric fluid, 0.01 N HCl (about pH 2), read-out: aqueous solubility); under 0.01 mg/mL in series [3] (0.01 N HCl, 25 °C, pH 2, simulated gastric fluid, at 25° C. in 0.01 N HCl (pH 2), read-out: Solubility); under 0.01 mg/mL in series [3] (25 mM phosphate buffer, 25 °C, pH 7, aqueous buffer, at 25° C. in 25 mM Phosphate buffer (pH 7), read-out: Solubility); under 0.01 mg/mL in series [3] (0.05% Tween 80 & 0.5% Methocel, 25 °C, aqueous with cosolvent or surfactant or cyclodextrin, at 25° C. in 0.05% Tween 80 & 0.5% Methocel, read-out: Solubility); 0.4 mg/mL (≈ 0.915 mM) in series [3] (1% Tween 80, 25 °C, aqueous with cosolvent or surfactant or cyclodextrin, at 25° C. in 1% Tween 80, read-out: Solubility); under 0.01 mg/mL in series [3] (5% Gum Arabic, 25 °C, aqueous with cosolvent or surfactant or cyclodextrin, at 25° C. in 5% Gum Arabic, read-out: Solubility). Moreover, the solubility in series [3] (50% Captisol, 25 °C, aqueous with cosolvent or surfactant or cyclodextrin, at 25° C. in 50% Captisol, read-out: Solubility) was 0.4 mg/mL (≈ 0.915 mM); in series [3] (Cremophor RH 40, 25 °C, organic solvent or mixture, at 25° C. in Cremophor RH 40, read-out: Solubility) it was 196 mg/mL (≈ 448 mM); in series [3] (Labrafil M 1944 CS, 25 °C, oil or lipid, at 25° C. in Labrafil M 1944 CS, read-out: Solubility), 29.9 mg/mL (≈ 68.4 mM); in series [3] (Labrafil M 2125 CS, 25 °C, oil or lipid, at 25° C. in Labrafil M 2125 CS, read-out: Solubility), 32.7 mg/mL (≈ 74.8 mM); in series [3] (Labrasol, 25 °C, oil or lipid, at 25° C. in Labrasol, read-out: Solubility) it was 348 mg/mL (≈ 796 mM); in series [3] (PEG 300, 25 °C, organic solvent or mixture, at 25° C. in PEG 300, no suspension observed, read-out: Solubility) it was over 150 mg/mL. Further, the solubility was 377 mg/mL (≈ 861 mM) in series [3] (PEG 400, 25 °C, organic solvent or mixture, at 25° C. in PEG 400, read-out: Solubility); over 325 mg/mL in series [3] (PEG 600, 25 °C, organic solvent or mixture, at 25° C. in PEG 600, no suspension observed, read-out: Solubility); over 200 mg/mL in series [3] (Softigen 767, 25 °C, oil or lipid, at 25° C. in Softigen 767, no suspension observed, read-out: Solubility); over 200 mg/mL in series [3] (Transcutol P, 25 °C, organic solvent or mixture, at 25° C. in Transcutol P, no suspension observed, read-out: Solubility); over 160 mg/mL in series [3] (Tween 20, 25 °C, organic solvent or mixture, at 25° C. in Tween 20, no suspension observed, read-out: Solubility); 320 mg/mL (≈ 732 mM) in series [3] (Tween 80, 25 °C, organic solvent or mixture, at 25° C. in Tween 80, read-out: Solubility). Further, the solubility in series [3] (deionized water, 25 °C, water, at 25° C. in Deionized water, read-out: Solubility) is under 0.01 mg/mL; in series [3] (deionized water, 25 °C, water, deionized water, read-out: aqueous solubility), at most 0.01 mg/mL; in series [3] (phosphate buffer, 25 °C, pH 7, aqueous buffer, phosphate buffer (about pH 7), read-out: aqueous solubility), at most 0.01 mg/mL; in series [3] (saline (0.9% NaCl solution), 25 °C, saline or isotonic, at 25° C. in Saline (0.9% NaCl solution), read-out: Solubility), under 0.01 mg/mL; in series [3] (saline (about 0.9% NaCl solution), 25 °C, saline or isotonic, saline (about 0.9% NaCl solution), read-out: aqueous solubility), at most 0.01 mg/mL. Also, the AUC(0-inf) in series [4] (single oral dose 10 mg) stood at 51 ng·h/mL; in series [4] (single oral dose 20 mg), 181 ng·h/mL; in series [4] (single oral dose 40 mg) it was 395 ng·h/mL; in series [4] (single oral dose 80 mg), 612 ng·h/mL; in series [4] (single oral dose 160 mg) it was 739 ng·h/mL. Moreover, the maximum concentration (Cmax) in series [4] (single oral dose 10 mg) was determined as 18 ng/mL; in series [4] (single oral dose 20 mg), 58 ng/mL; in series [4] (single oral dose 40 mg), 113 ng/mL; in series [4] (single oral dose 80 mg), 118 ng/mL; in series [4] (single oral dose 160 mg) it was 125 ng/mL. The Tmax in series [4] (single oral dose 10 mg) was 1.2 h; in series [4] (single oral dose 20 mg), 1.2 h; in series [4] (single oral dose 40 mg) it was 1.5 h; in series [4] (single oral dose 80 mg), 1.2 h; in series [4] (single oral dose 160 mg), 1.5 h. The “effectiveness as a modulator of the 5-HT2A serotonin receptor” value in series [5] is “especially effective as a modulator of the 5-HT2A serotonin receptor”.

`O=CN1CCC(C(=O)NCCN2CCC(=C3c4ccccc4C=Cc4ccccc43)CC2)CC1` [AT-1015]: in the series with diabetic rats, the “14.9% reduction” value was “completely reversed” and the “44.7% reduction” value is “completely reversed”.
